Values quoted from earlier work, collected in patent US6909006B1, “Cyclopropylindole derivatives” (priority 1999, dated 2005).

Test system: tumour cells growing in vitro

COc1c(O)c2c(c3cc(C(=O)N4CCc5c4c(O)c(OC)c4[nH]c(C(=O)N6CC7CC78C6=CC(=O)c6[nH]cc(C)c68)cc54)[nH]c13)CCN2C(N)=O (stereo not shown) [CC-1065]
IC50s in tumour cells growing in vitro: low pM range
